# Reference: patent US20140329754A1, “COMPOSITIONS AND METHODS FOR TREATING MYELODYSPLASTIC SYNDROME” (Telik, Inc., priority 2010, published 2014)
# Where a name gives a salt, the structure may show the parent alone.
# Key:
# [1] = tested on: Patients with an International Prognostic System Score (IPSS) Low to Intermediate-1 Risk Myelodysplastic syndrome; experiment: Clinical study of ezatiostat hydrochloride tablets in IPSS low to intermediate-1 risk MDS patients: hematologic improvement (efficacy); type: in vivo, human; settings: for Duration of HI-E Response, # Censored / Duration of HI-E Response, # Event: number of responders; for significant RBC transfusion reduction, patients: five of 11 patients; for HI-E Response Rate (95% Confidence Interval): hydrochloride
# [2] = Same clinical study: non-hematologic adverse events (safety, all patients treated); type: in vivo, human
# Description: Eighty-seven patients were randomized and treated at 23 investigational sites. After initial dose ranging in 14 patients, two dose levels were selected for further study. Subsequently, 37 patients were treated at 3 grams daily for two weeks followed by a one week rest period, and 36 patients were treated at 2 grams daily for three weeks followed by a one week rest period. The data on these 73 patients was pooled for this preliminary analysis.
# The safety data is based on all patients treated.
# MDS patients = settings: patients administered lenalidomide; reported; cited from earlier work
# [3] = 1 g b.i.d. 3 weeks on & 1 week off
# [4] = 1.5 g b.i.d. 2 weeks on & 1 week off
smiles,measurement,setting,value
"CCOC(=O)[C@@H](N)CCC(=O)N[C@@H](CSCc1ccccc1)C(=O)N[C@@H](C(=O)OCC)c1ccccc1 [Telintra, ezatiostat hydrochloride]","Duration of HI-E Response, # Censored, percent of responders",[1]; [3],(66.7%)
same,"Duration of HI-E Response, # Event, percent of responders",[1]; [3],(33.3%)
same,"Duration of HI-E Response, Median (95% CI)",[1]; [3],46.1 Weeks
same,"Duration of HI-E Response, Min, Max",[1]; [3],2.4-46.1 Weeks
same,"Time to HI-E Response, Median",[1]; 1 g b.i.d. 3 weeks on & 1 week off (N = 31),8.4 Weeks
same,"Time to HI-E Response, Mean","[1]; 1 g b.i.d. 3 weeks on & 1 week off (N = 31), 6 responders",8.9 Weeks
same,"Duration of HI-E Response, # Censored",[1]; [3],4
same,"Duration of HI-E Response, # Event",[1]; [3],2
same,"Duration of HI-E Response, # Censored, percent of responders",[1]; [4],(28.6%)
same,"Duration of HI-E Response, # Event, percent of responders",[1]; [4],(71.4%)
same,"Duration of HI-E Response, Median (95% CI)",[1]; [4],18.4 Weeks
same,"Duration of HI-E Response, Min, Max",[1]; [4],1.9-51.0 Weeks
same,"Time to HI-E Response, Median",[1]; 1.5 g b.i.d. 2 weeks on & 1 week off (N = 29),8.1 Weeks
same,"Time to HI-E Response, Mean","[1]; 1.5 g b.i.d. 2 weeks on & 1 week off (N = 29), 7 responders",8.4 Weeks
same,"Duration of HI-E Response, # Censored",[1]; [4],2
same,"Duration of HI-E Response, # Event",[1]; [4],5
same,bilineage HI rate (HI-E and HI-N),"[1]; 2 of 19 patients, 95% CI 1.3-33.1",11%
same,Hematologic Improvement-Neutrophil (HI-N) rate,"[1]; 3 of 20 patients, 95% CI 3.2-37.9",15%
same,"RBC transfusion independence, patients",[1]; 4 of 38 RBC transfusion-dependent patients,11%
same,"clinically significant RBC transfusion reduction (reduction of 4U/8 weeks, IWG 2006), patients",[1]; 11 of 38 RBC transfusion-dependent patients,29%
same,overall Hematologic Improvement-Erythroid (HI-E) rate,"[1]; 13 of 60 evaluable patients, pooled 3 g/day and 2 g/day schedules, 95% CI 12.1-34.2",22%
same,median hemoglobin level increase,[1]; in responders,2.0 gram/dL
same,increase in response rate,[1]; lenalidomide pre-treated vs not pre-treated patients,over 100%
same,effect of prior Revlimid treatment on HI-E response,[1]; logistic regression analysis,enhance HI-E response
same,HI-E rate,"[1]; no prior Revlimid, no prior DMTI, 6 of 23 patients, 95% CI 10.2%-48.4%",26%
same,"significant RBC transfusion reduction, patients","[1]; no prior Revlimid, no prior DMTI",45%
same,HI-E rate,"[1]; no prior Revlimid, prior DMTI, 0 of 17 patients, 95% CI 0%-19.5%",0%
same,complete cytogenetic response (number of patients),"[1]; of the four patients with del 5q minus, one had failed prior Revlimid",two
same,duration of complete remission following discontinuation of therapy,[1]; one patient,more than 12 months
same,HI-E Response Rate (95% Confidence Interval),"[1]; patients with no prior Revlimid (lenalidomide) treatment, N=27, efficacy evaluable population",about 22%
same,HI-E Response Rate (95% Confidence Interval),"[1]; patients with prior Revlimid (lenalidomide) treatment, N=13, efficacy evaluable population",about 46%
same,median duration of HI-E response,[1]; pooled schedules,46 weeks
same,range of duration of HI-E response,[1]; pooled schedules,2-51 weeks
same,change in odds for a HI-E response,"[1]; prior DMTI treatment, logistic regression, p=0.023",five-fold decrease
same,HI-E rate,"[1]; prior Revlimid, no prior DMTI, 6 of 15 patients, 95% CI 16.3%-67.7%",40%
same,"significant RBC transfusion reduction, patients","[1]; prior Revlimid, no prior DMTI",45%
same,"transfusion independence, patients","[1]; prior Revlimid, no prior DMTI, three of 11 patients",27%
same,cytogenetic complete responses (number of patients),[1]; whole study,three
same,"diarrhea, Grade 1 adverse event incidence",[2]; all patients treated,25%
same,"diarrhea, Grade 2 adverse event incidence",[2]; all patients treated,7%
same,"diarrhea, Grade 3 adverse event incidence",[2]; all patients treated,3%
same,"nausea, Grade 1 adverse event incidence",[2]; all patients treated,45%
same,"nausea, Grade 2 adverse event incidence",[2]; all patients treated,16%
same,"nausea, Grade 3 adverse event incidence",[2]; all patients treated,1%
same,"vomiting, Grade 1 adverse event incidence",[2]; all patients treated,30%
same,"vomiting, Grade 2 adverse event incidence",[2]; all patients treated,12%
same,"vomiting, Grade 3 adverse event incidence",[2]; all patients treated,2%
same,incidence of GI AEs with prior DMTI treatment,[2]; patients with prior DMTI treatment,increased incidence of GI AEs
"Nc1cccc2c1CN(C1CCC(=O)NC1=O)C2=O (stereo not drawn) [lenalidomide, 3-(4-amino-l-oxoisoindolin-2-yl)piperidine-2,6-dione]",patients exhibiting clinically recognizable response,MDS patients,about 50%
